Results taken from publication PMC12595484, “Optimizing multifunctional fluorescent ligands for intracellular labeling” (Proceedings of the National Academy of Sciences of the …, 2025).

Tests used:
[1] = system: U2OS cells expressing HaloTag fusion proteins; assay: Live-cell labeling of HaloTag fusions at different subcellular locations, Airyscan microscopy; type: cell-based; details: 100 nM, 1 h
Protocol: Fig. 4. Evaluation of live-cell labeling of biotin–rhodamine–HaloTag ligands 13HTL–16HTL. Airyscan fluorescence microscopy images of U2OS cells expressing HaloTag fusion proteins at different subcellular locations, incubated with 100 nM 13HTL–16HTL for 1 h followed by fixation, counterstaining with Hoechst 33342 (gray) and imaging. Columns indicate different HaloTag fusion proteins: (A–D) Cell-surface-localized HaloTag–PDGFR; (E–H) Outer mitochondrial membrane-localized HaloTag–TOMM20; (I–L) Endoplasmic reticulum membrane-localized HaloTag–Sec61β; (M–P) Nucleus-localized HaloTag–histone H2B. Rows indicate different ligands: (A,E,I, and M) biotin–JF549–HaloTag ligand (13HTL; yellow); (B, F, J, and N) biotin–JF608–HaloTag ligand (14HTL; red); (C, G, K, and O) biotin–JF646–HaloTag ligand (15HTL; magenta); (D, H, L, and P) biotin–JF635–HaloTag ligand (16HTL; magenta). […]
indicated in the product information12 and from a previous publication.13 For labeling with biotin-JF-HaloTag ligands 13HTL–16HTL, cells were incubated with 100 nM or 1 µM ligand for 0.5–2 h at 37 °C. […] For quantitation of labeling intensity, ROIs were drawn surrounding individual HEK cells, and the average fluorescence ratio (JF/msGFP) from multiple cells in each condition was measured; no background subtraction was necessary.
U2OS cell culture, labeling, and fluorescence microscopy. […]

HaloTag protein = molecular target: T1, HaloTag protein (Rhodococcus rhodochrous, UniProt P0A3G2, A155T/A167V/A172T/A224E/C128F/C176G/D78G/E160K/E257K/H272N/K175M/K195N/L47V/L88M/N227D/S58T/T264A/Y273L/Y87F); assay: Absorbance/fluorescence increase upon HaloTag binding; type: biochemical; details: HaloTag conjugate vs free ligand
T1 construct: made in house
T1 sequence (P0A3G2 other isoform, or with tags, fused parts or gaps with the stated changes): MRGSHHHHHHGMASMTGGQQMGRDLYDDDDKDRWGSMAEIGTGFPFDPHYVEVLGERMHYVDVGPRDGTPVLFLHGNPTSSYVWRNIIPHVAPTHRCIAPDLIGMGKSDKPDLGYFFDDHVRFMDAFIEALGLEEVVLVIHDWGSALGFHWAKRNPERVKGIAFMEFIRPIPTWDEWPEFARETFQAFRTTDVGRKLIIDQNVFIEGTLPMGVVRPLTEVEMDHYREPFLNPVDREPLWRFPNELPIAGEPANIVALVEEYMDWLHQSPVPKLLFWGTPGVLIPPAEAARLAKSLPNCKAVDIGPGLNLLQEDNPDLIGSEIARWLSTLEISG
Protocol: HaloTag protein purification. The bacterial expression vector pRSET-A (Invitrogen) was used to recombinantly express HaloTag (HT7; Promega).1 The soluble 6×His-Tagged HaloTag protein was affinity purified by immobilized metal affinity chromatography (IMAC) on a 5 -mL Fast Flow HiTrap Sepharose 6 column (Cytiva) with a 0–200 mM imidazole elution gradient using an Avant Protein Purification System (ÄKTA). A280 peak fractions were pooled, concentrated by a spin concentrator, and dialyzed 3× into tris-buffered saline (TBS). The amino acid sequence of HaloTag (HT7) expressed from pRSET-A is noted below; the annotated DNA and amino acid sequences […]
Spectroscopy of HaloTag ligands and HaloTag conjugates. […]
± 2 °C). Absorption spectra were recorded on a Cary Model 100 spectrometer (Agilent) using 1-cm path length 1.0-mL quartz microcuvettes from Starna Cells. Fluorescence spectra were recorded on a Cary Eclipse fluorometer (Varian) using 1-cm path length 3.5-mL quartz cuvettes (Starna Cells). […] An aliquot of HaloTag protein (1.5 equiv) was added, and the resulting mixture was incubated until a consistent absorbance signal was observed (60–120 min).
To measure the fold-increase of absorbance upon HaloTag binding, a “no HaloTag” control experiment was performed where an equivalent volume of TBS blank was added in place of the protein. […]

O=C(CCCCC1SCC2NC(=O)NC21)NCCOCCOCCNC(=O)C1C[N+](=c2ccc3c(-c4cc(C(=O)NCCOCCOCCCCCCCl)ccc4C(=O)[O-])c4ccc(N5CCC5)cc4oc-3c2)C1 (stereo not drawn) [13HTL, biotin–JF549–HaloTag ligand]
labeling of HaloTag fusions (PDGFR, TOMM20, Sec61β, histone H2B) [1]: low intracellular signals, only labeling the cell-surface-localized PDGFR–HaloTag fusion

C[Si]1(C)C2=CC(=[N+]3CC(C(=O)NCCOCCOCCNC(=O)CCCC[C@@H]4SC[C@@H]5NC(=O)N[C@@H]54)C3)C=CC2=C(c2cc(C(=O)NCCOCCOCCCCCCCl)ccc2C(=O)[O-])c2ccc(N3CCC3)cc21 (stereo partly drawn) [15HTL, biotin–JF646–HaloTag ligand]
fluorogenicity upon HaloTag binding (HaloTag protein): 2.9 fold

C[Si]1(C)C2=CC(=[N+]3CC(F)(C(=O)NCCOCCOCCNC(=O)CCCC[C@@H]4SC[C@@H]5NC(=O)N[C@@H]54)C3)C=CC2=C(c2cc(C(=O)NCCOCCOCCCCCCCl)ccc2C(=O)[O-])c2ccc(N3CC(F)C3)cc21 (stereo partly drawn) [16HTL, biotin–JF635–HaloTag ligand]
fluorogenicity upon HaloTag binding (HaloTag protein): 17.6 fold
